Reference: ChEMBL document CHEMBL5441456, “ASAP - SARS-CoV-2 nsp3 macrodomain dose response” (2024)
Values joined by “and” are separate entries in the source; they are usually repeats but may differ in a detail not shown here. Equal entries are not always repeated.

What follows are compounds tested against Replicase polyprotein 1ab (Severe acute respiratory syndrome coronavirus 2, UniProt P0DTD1) (assay: Functional biochemical assay to identify treatments for viral infectious disease that targets SARS-COV-2 nsp3 macrodomain, whereby the mechanism of action displaces an ADP-Ribose modified peptide from the binding site. Utilizing a time-resolved fluorescence method to measure binding by reading the emitted fluorescence intensity in two wavelengths.).

**Q.** How did the IC50 turn out when `CC(C)[C@@H](Nc1ncnc2[nH]c(C(=O)N[C@H]3CCN(C)C3)cc12)c1ccc2c(c1)S(=O)(=O)CCC2` was run?
**A.** 54 nM and 107 nM

**Q.** `CCNC(=O)c1cc2c(N[C@@H](c3ccc4c(c3)S(=O)(=O)CCO4)C(C)C)ncnc2[nH]1` was tested. Which IC50 did it give?
**A.** 33 nM and 64 nM and 52 nM and 90 nM and 50 nM and 73 nM

**Q.** For `Cc1nn(C)cc1-c1cc2c(N[C@@H](c3ccc4c(c3)S(=O)(=O)CCC4)C(C)C)ncnc2[nH]1`, which IC50 is on record?
**A.** 36800 nM and 10800 nM

**Q.** How did the IC50 turn out when `CNC(=O)c1cccc(-c2cc3c(N[C@@H](c4ccc5c(c4)S(=O)(=O)CCC5)C(C)C)ncnc3[nH]2)c1` was run?
**A.** 6740 nM

**Q.** How did the IC50 turn out when `CC(C)[C@H](Nc1ncnc2[nH]c(-c3cnn(CC(N)=O)c3)cc12)c1ccc2c(c1)S(=O)(=O)CCC2` was run?
**A.** 21 nM and 16 nM and 31 nM (2×) and 15 nM and 23 nM (2×) and 25 nM

**Q.** Which IC50 does the source give for `CC(C)[C@@H](Nc1ncnc2[nH]c(-c3cnn(C)c3)cc12)c1ccc2c(c1)S(=O)(=O)NCC2` here?
**A.** 71 nM and 57 nM

**Q.** `CC(C)[C@H](Nc1ncnc2[nH]c(-c3cnn(C)c3C#N)cc12)c1ccc2c(c1)S(=O)(=O)CCC2` was tested. Which IC50 did it give?
**A.** 18 nM and 15 nM and 13 nM

**Q.** `CC(C)(C)[C@H](Nc1ncnc2[nH]c(-c3cnn(CC(N)=O)c3)cc12)c1ccc2c(c1)OCCO2` was tested. Which IC50 did it give?
**A.** 122 nM

**Q.** With `CNCc1cc(-c2cc3c(N[C@H](c4ccc5c(c4)S(=O)(=O)CCC5)C(C)C)ncnc3[nH]2)co1` as the compound, how does the IC50 read?
**A.** 2240 nM and 1910 nM and 971 nM

**Q.** With `CC(C)[C@H](Nc1ncnc2[nH]c(-c3cnn(C)c3C#N)cc12)c1ccc2c(n1)NC(=O)CO2` as the compound, how does the IC50 read?
**A.** 101 nM and 95 nM

**Q.** Which IC50 does the source give for `CNCc1cc(-c2cc3c(N[C@@H](c4ccc5c(c4)S(=O)(=O)NCC5)C(C)C)ncnc3[nH]2)co1` here?
**A.** 65 nM and 70 nM (2×) and 108 nM

**Q.** `CC(C)[C@@H](Nc1ncnc2[nH]ccc12)c1ccc2c(c1)S(=O)(=O)CCO2` was tested. Which IC50 did it give?
**A.** 181 nM

**Q.** With `CC(C)[C@H](Nc1ncnc2[nH]c(-c3cnn(C)c3C#N)cc12)c1ccc2c(c1)NC(=O)CO2` as the compound, how does the IC50 read?
**A.** 176 nM

**Q.** With `CCNC(=O)c1cc2c(N[C@@H](c3ccc4c(c3)S(=O)(=O)NCC4)C(C)C)ncnc2[nH]1` as the compound, how does the IC50 read?
**A.** 124 nM and 117 nM and 95 nM and 197 nM

**Q.** For `CC(C)[C@H](Nc1ncnc2[nH]c(-c3cnn(C)c3)cc12)c1ccc2c(c1)S(=O)(=O)CCC2`, which IC50 is on record?
**A.** 9140 nM

**Q.** For `CC(C)[C@@H](Nc1ncnc2[nH]c(-c3ccc4nnn(C)c4c3)cc12)c1ccc2c(c1)S(=O)(=O)CCC2`, which IC50 is on record?
**A.** 100 nM and 85 nM

**Q.** With `CC(C)[C@@H](Nc1ncnc2[nH]c(-c3ccc4cncn4c3)cc12)c1ccc2c(c1)S(=O)(=O)CCC2` as the compound, how does the IC50 read?
**A.** 123 nM and 95 nM

**Q.** With `CC(C)[C@@H](Nc1ncnc2[nH]c(-c3cncc(S(C)(=O)=O)c3)cc12)c1ccc2c(c1)S(=O)(=O)CCC2` as the compound, how does the IC50 read?
**A.** 39 nM and 79 nM and 57 nM and 143 nM

**Q.** For `CNC(=O)c1cccc(-c2cc3c(N[C@H](c4ccc5c(c4)S(=O)(=O)CCC5)C(C)C)ncnc3[nH]2)c1`, which IC50 is on record?
**A.** 14 nM and 26 nM and 10 nM and 20 nM and 22 nM and 27 nM and 29 nM

**Q.** With `CC(C)[C@@H](Nc1ncnc2[nH]c(-c3cccc(-n4cnnn4)c3)cc12)c1ccc2c(c1)S(=O)(=O)CCC2` as the compound, how does the IC50 read?
**A.** 241 nM

**Q.** For `CC(C)[C@@H](Nc1ncnc2[nH]c(-c3ccc(S(=O)(=O)NCCO)cc3)cc12)c1ccc2c(c1)S(=O)(=O)CCC2`, which IC50 is on record?
**A.** 100 nM and 90 nM and 156 nM

**Q.** How did the IC50 turn out when `CC(C)[C@@H](Nc1c(N)cnc2[nH]ccc12)c1ccc2c(c1)S(=O)(=O)CCC2` was run?
**A.** > 99500 nM

**Q.** With `CNc1nccc(N[C@H](c2ccc3c(c2)S(=O)(=O)CCC3)C(C)C)n1` as the compound, how does the IC50 read?
**A.** > 99500 nM

**Q.** How did the IC50 turn out when `CC(C)[C@H](Nc1ncnc2[nH]cnc12)c1ccc2c(c1)S(=O)(=O)CCC2` was run?
**A.** 743 nM

**Q.** How did the IC50 turn out when `CC(C)[C@@H](Nc1ncnc2[nH]ccc12)c1ccc2c(c1)S(=O)(=O)CO2` was run?
**A.** 3620 nM and 2350 nM

**Q.** For `CC(C)[C@@H](Nc1ncnc2[nH]c(C(=O)NCc3ccno3)cc12)c1ccc2c(c1)OCCO2`, which IC50 is on record?
**A.** 792 nM and 829 nM

**Q.** For `CCNC(=O)c1cc2c(N[C@@H](c3ccc4ncn(C)c(=O)c4c3)C(C)C)ncnc2[nH]1`, which IC50 is on record?
**A.** 409 nM and 455 nM

**Q.** `CC(C)[C@H](Nc1ccnc2[nH]ccc12)c1ccc2c(c1)S(=O)(=O)CCC2` was tested. Which IC50 did it give?
**A.** > 99500 nM

**Q.** How did the IC50 turn out when `CC(C)[C@@H](Nc1ncnc2[nH]c(C(=O)NCC3(CO)CC3)cc12)c1ccc2c(c1)OCCO2` was run?
**A.** 802 nM and 2140 nM

**Q.** How did the IC50 turn out when `CC(C)[C@@H](Nc1ncnc2[nH]c(C(=O)Nc3cn(C)nc3O)cc12)c1ccc2c(c1)OCCO2` was run?
**A.** 678 nM and 611 nM

**Q.** With `CC(C)[C@@H](Nc1ccnc2[nH]ccc12)c1ccc2c(c1)S(=O)(=O)CCC2` as the compound, how does the IC50 read?
**A.** > 99500 nM

**Q.** `CCNC(=O)c1cc2c(N[C@@H](c3ccc4c(n3)NC(=O)CO4)C(C)C)ncnc2[nH]1` was tested. Which IC50 did it give?
**A.** 1060 nM and 574 nM

**Q.** `CNCc1cc(-c2cc3c(N[C@@H](c4ccc5c(c4)NC(=O)CO5)C(C)C)ncnc3[nH]2)co1` was tested. Which IC50 did it give?
**A.** 313 nM and 187 nM

**Q.** Which IC50 does the source give for `CC(C)[C@@H](Nc1ncnc2[nH]ccc12)c1cccc(S(C)(=O)=O)c1` here?
**A.** 96400 nM

**Q.** With `CC(C)[C@@H](Nc1cccc2nc[nH]c(=O)c12)c1ccc2c(c1)S(=O)(=O)CCC2` as the compound, how does the IC50 read?
**A.** > 99500 nM

**Q.** For `CC(C)[C@@H](Nc1ncnc2[nH]c(C(=O)N[C@H]3[C@@H]4COC[C@@H]43)cc12)c1ccc2c(c1)OCCO2`, which IC50 is on record?
**A.** 629 nM and 543 nM

**Q.** Which IC50 does the source give for `CCNC(=O)c1cc2c(N[C@@H](C(=O)NC3CCOCC3)C(C)C)ncnc2[nH]1` here?
**A.** > 99500 nM

**Q.** Which IC50 does the source give for `CCNC(=O)c1cc2c(N[C@@H](c3cccc(-c4ccc(OC)nc4)c3)C(C)C)ncnc2[nH]1` here?
**A.** 20900 nM and 17700 nM

**Q.** With `CCNC(=O)c1cc2c(N[C@@H](c3nc4ccccc4o3)C(C)C)ncnc2[nH]1` as the compound, how does the IC50 read?
**A.** 20500 nM and 17600 nM

**Q.** With `CC(C)(C)[C@H](Nc1ncnc2[nH]c(-c3cnn(CC(N)=O)c3)cc12)c1ccc2c(n1)OCCO2` as the compound, how does the IC50 read?
**A.** 14100 nM and 10700 nM

**Q.** How did the IC50 turn out when `CNC(=O)c1cc2c(N[C@H](c3ccc4c(c3)S(=O)(=O)CCC4)C(C)C)ncnc2[nH]1` was run?
**A.** 1790 nM

**Q.** Which IC50 does the source give for `CCNC(=O)c1cc2c(N[C@@H](c3cc4c(cc3Cl)OCO4)C(C)C)ncnc2[nH]1` here?
**A.** 6220 nM and 4920 nM
